Entries after “also recorded” stand apart in the source; their conditions may differ.

The first data set concerns vascularized cardiac organoids. In words: Integrated metabolic-electro-mechanical sensor chip: simultaneous contraction, field potential and interstitial oxygen.
Conditions: not given
The data set is classed as cell-based, human. As for the experimental part: The MEA design and printed connections enabled access to 45 different electrodes inside the platform intermittently via a compatible sensor circuit (FIGS. 9A-9B). Spontaneous cardiac field potentials (FPs) were recorded from cardiac organoids using an integrated signal conditioning circuit (AD8232®), with a 2-pole adjustable high-pass filter, 3-pole adjustable low-pass filter, adjustable gain, and medical instrumentation amplifiers to extract, amplify, and filter the extracellular field potential of the organoids remotely within the confined well. […] Spontaneous cardiac field potentials were measured at 100 Hz sampling rate in each microwell. Field potential rhythm frequency was calculated in real-time using a custom-made MATLAB® software imposing Fourier Transformation (FFT) on the evolving kinetic data (FIGS. 9C-9D).
Real-time oxygen measurement was performed based on previously described elements. Briefly, phosphorescent ruthenium microprobes (CPOx-50-RuP) show a decrease in phosphorescence decay time as a function of oxygen concentration, allowing to measure the oxygen content. Controlled sinusoidal modulated 532-nm LED signal excites the embedded oxygen sensors and emits a sinusoidal amplitude-modulated light at 605 nm that is shifted in phase due to oxygen quenching. A phase shift is measured between the emission hardware-filtered first detector (PMT), and a second excitation detector (cPMT). […] Measurements were carried out at a 10 Hz sampling rate. Contraction rate and oxygen rhythm frequency were calculated in real-time using a custom-made MATLAB® software imposing Fourier Transformation (FFT) on the evolving kinetic data. Using custom MATLAB code, we calculated the cardiac organoid contraction rates directly from our oxygen reader based on the emission intensity measured in peak-to-peak voltage from the oxygen bead and its displacement using the second PMT system. Cardiac displacement was measured by the embedded oxygen beads inside the cardiac organoids during a contraction. When the beads move at different distances from the focal point, changes in peak-to-peak voltage occurred leading to the detection of the contraction behavior.
For simultaneous real-time oxygen, contraction rate, and field potential measurements, cardiac organoids were cultured in RPMI supplemented with B27 minus insulin, 5 ng/ml VEGF and 0.1% DMSO (control) or 10 μM KB-R7943 mesylate. Real-time oxygen, contraction rate, and field potential were measured after 0, 15, and 25 minutes of exposure to DMSO (control) or 10 μM KB-R7943 mesylate.
Consider `NC1=N[C@H](O)[C@H]2[C@H]3O[C@]4(O)O[C@@H]([C@@H](O)[C@@]2(N1)[C@@H]4O)[C@]3(O)CO` [Tetrodotoxin], for which the “effect on field potential generation, mechanical contraction (and oxygen oscillation)” value is “complete loss of field potential generation and associated mechanical contraction; also recorded: eliminated field potential generation, mechanical contraction, and oxygen oscillation”; the “effect on oxygen oscillation” value is “decayed simultaneously with the field potential”.

Another data set deals with vascularized cardiac organoids. The data set is described as above. As to conditions: 10 μM Blebbistatin. Type of data set: cell-based, human.
For the molecule `Cc1ccc2c(c1)C(=O)C1(O)CCN(c3ccccc3)C1=N2` (stereo not drawn) [Blebbistatin], the effect on contraction entry is recorded as “inhibits the contraction; also recorded: blocked cardiac contraction”; the “effect on field potential and interstitial oxygen oscillation frequency and intensity” value was “does not affect the FPs or interstitial oxygen oscillations frequency and intensity; also recorded: did not affect the field potential or the oxygen oscillation frequency and intensity”.

System in a further data set: not given
Assay: not given
Particulars: known cardiac side effects of therapeutic agents; cited from earlier work.
For the molecule `C[C@@H]1CN(c2c(F)c(N)c3c(=O)c(C(=O)O)cn(C4CC4)c3c2F)C[C@H](C)N1` [Sparfloxacin], the “Side effect (cardiac)” value is reported as “QT prolongation”.

As for Nivolumab, the “Side effect (cardiac)” value was “lethal myocarditis”.

Turning to `CC(CN(C)C)C(C)(O)Cc1ccc(Cl)cc1` (stereo not drawn) [Clobutinol], the “Side effect (cardiac)” value was “QT prolongation”.

`Cc1nc(Nc2ncc(C(=O)Nc3c(C)cccc3Cl)s2)cc(N2CCN(CCO)CC2)n1` [Dasatinib]: the “Side effect (cardiac)” value is recorded as “heart failure”.

As to `CC(=O)[C@]1(O)Cc2c(O)c3c(c(O)c2[C@@H](O[C@H]2C[C@H](N)[C@H](O)[C@H](C)O2)C1)C(=O)c1ccccc1C3=O` [Idarubicin], the “Side effect (cardiac)” value was “arrhythmias, heart failure”.

On to `N=C(N)c1ccc(OCCCCCOc2ccc(C(=N)N)cc2)cc1` [Pentamidine], for which the “Side effect (cardiac)” value is given as “QT prolongation, arrhythmias”.

On to `CC[C@@H](CO)NC(=O)[C@@H]1C=C2c3cccc4c3c(cn4C)C[C@H]2N(C)C1` [Methysergide], for which the “Side effect (cardiac)” value is recorded as “valvular heart disease”.

Take `O=C1Cc2cc(CCN3CCN(c4nsc5ccccc45)CC3)c(Cl)cc2N1` [Ziprasidone]: the “Side effect (cardiac)” value is listed as “QT prolongation, TdP, sudden cardiac death”.

Take `CCCN1C[C@H](CSC)C[C@@H]2c3cccc4[nH]cc(c34)C[C@H]21` [Pergolide]: the “Side effect (cardiac)” value is on record as “valvular heart disease”.

In the case of `COc1ccc2cc([C@H](C)C(=O)O)ccc2c1` [Naproxen], the “Side effect (cardiac)” value was “myocardial infarction”.

On to `CCCCN1CCCCC1C(=O)Nc1c(C)cccc1C` (stereo not drawn) [Bupivacaine], for which the “Side effect (cardiac)” value was “ventricular arrhythmias, myocardial depression”.

Turning to `CC(CC(c1ccccc1)c1ccccc1)NC(C)(C)C` (stereo not drawn) [Terodiline], the “Side effect (cardiac)” value is reported as “ventricular tachycardia, cardiac death”.

As to `COc1ccc2[nH]c([S+]([O-])Cc3ncc(C)c(OC)c3C)nc2c1` (stereo not drawn) [Omeprazole], the “Side effect (cardiac)” value is listed as “acute myocardial infarction, heart failure”.

Turning to Ipilimumab, the “Side effect (cardiac)” value is “lethal myocarditis”.

Consider `CC(C)(N)Cc1ccc(Cl)cc1` [Chlorphentermine], for which the “Side effect (cardiac)” value was “pulmonary heart disease”.

In the case of `CC[C@H]1OC(=O)[C@H](C)[C@@H](O[C@H]2C[C@@](C)(OC)[C@@H](O)[C@H](C)O2)[C@H](C)[C@@H](O[C@@H]2O[C@H](C)C[C@H](N(C)C)[C@H]2O)[C@](C)(OC)C[C@@H](C)C(=O)[C@H](C)[C@@H](O)[C@]1(C)O` [Clarithromycin], the “Side effect (cardiac)” value is listed as “QT prolongation, myocardial infarction, arrhythmias, cardiac death”.

With `CC(=O)O[C@@]12CO[C@@H]1C[C@H](O)[C@@]1(C)C(=O)[C@H](O)C3=C(C)[C@@H](OC(=O)[C@H](O)[C@@H](NC(=O)OC(C)(C)C)c4ccccc4)C[C@@](O)([C@@H](OC(=O)c4ccccc4)[C@H]21)C3(C)C` [Docetaxel], the “Side effect (cardiac)” value is reported as “bradycardia, myocardial ischemia, heart failure”.

Consider `CCN(CC)CCNC(=O)c1c(C)[nH]c(/C=C2\C(=O)Nc3ccc(F)cc32)c1C` [Sunitinib], for which the “Side effect (cardiac)” value is reported as “long QT, left ejection fraction, myocardial infarction”.

`CS(=O)(=O)CCNCc1ccc(-c2ccc3ncnc(Nc4ccc(OCc5cccc(F)c5)c(Cl)c4)c3c2)o1` [Lapatinib]: the “Side effect (cardiac)” value is recorded as “left ventricular ejection fraction, congestive heart failure”.

In the case of `CCCCCNC(=N)N/N=C/c1c[nH]c2ccc(OC)cc12` [Tegaserod], the “Side effect (cardiac)” value is reported as “Ischemia”.

In the case of `CNC(=O)c1cc(Oc2ccc(NC(=O)Nc3ccc(Cl)c(C(F)(F)F)c3)cc2)ccn1` [Sorafenib], the “Side effect (cardiac)” value was “heart failure, myocardial ischemia, QT prolongation”.

As for `CC(C)(N)Cc1ccccc1` [Phentermine], the “Side effect (cardiac)” value was “valvular heart disease”.

Take `CN1C[C@H](C(=O)N[C@]2(C)O[C@@]3(O)[C@@H]4CCCN4C(=O)[C@H](Cc4ccccc4)N3C2=O)C=C2c3cccc4[nH]cc(c34)C[C@H]21` [Ergotamine]: the “Side effect (cardiac)” value is “valvular heart disease”.

In the case of `COc1cccc2c1C(=O)c1c(O)c3c(c(O)c1C2=O)C[C@@](O)(C(C)=O)C[C@@H]3O[C@H]1C[C@H](N)[C@H](O)[C@H](C)O1` [Daunorubicin], the “Side effect (cardiac)” value is listed as “arrhythmias, heart failure”.

Take `O=c1[nH]cc(F)c(=O)[nH]1` [5-fluorouracil]: the “Side effect (cardiac)” value is given as “arrhythmias, myocardial ischemia, heart failure”.

As for `CCNC(C)Cc1cccc(C(F)(F)F)c1` (stereo not drawn) [Fenfluramine], the “Side effect (cardiac)” value is “valvular heart disease”.

Regarding `COc1ccc(CCN2CCC(Nc3nc4ccccc4n3Cc3ccc(F)cc3)CC2)cc1` [Astemizole], the “Side effect (cardiac)” value was “long QT syndrome, TdP”.

Take `COC(=O)[C@H]1[C@@H](OC(=O)c2ccccc2)C[C@@H]2CC[C@H]1N2C` [Cocaine]: the “Side effect (cardiac)” value is “left ventricular hypertrophy, arrhythmias”.

As for `CCN[C@@H](C)Cc1cccc(C(F)(F)F)c1` [Dexfenfluramine], the “Side effect (cardiac)” value is recorded as “valvular heart disease”.

As to `Cn1c(=O)cc(N2CCC[C@@H](N)C2)n(Cc2ccccc2C#N)c1=O` [Alogliptin], the “Side effect (cardiac)” value was “heart failure”.

As for `CC(C)OC(=O)[C@H](C)N[P@](=O)(OC[C@H]1O[C@@H](n2ccc(=O)[nH]c2=O)[C@](C)(F)[C@@H]1O)Oc1ccccc1` [Sofobuvir], the “Side effect (cardiac)” value was “Bradycardia”.

Take `COCC(=O)O[C@]1(CCN(C)CCCc2nc3ccccc3[nH]2)CCc2cc(F)ccc2[C@@H]1C(C)C` [Mibefradil]: the “Side effect (cardiac)” value is listed as “QT prolongation”.

As to `COc1ccc(C(=O)Nc2ccccc2CCC2CCCCN2C)cc1` (stereo not drawn) [Encainide], the “Side effect (cardiac)” value is reported as “QT prolongation, TdP”.

As to `COc1ccc(C(CN(C)C)C2(O)CCCCC2)cc1` (stereo not drawn) [Venlafaxine], the “Side effect (cardiac)” value is given as “QT prolongation, arrhythmias”.

Consider `N.N.[Cl][Pt][Cl]` [Cisplatin], for which the “Side effect (cardiac)” value was “arrhythmias, myocardial ischemia, heart failure”.

Turning to `COc1cc(N)c(Cl)cc1C(=O)NC1CCN(CCCOc2ccc(F)cc2)CC1OC` (stereo not drawn) [Cispapride], the “Side effect (cardiac)” value is listed as “ventricular arrhythmia, QT prolongation, TdP, cardiac arrest”.

For `CC(C)C[C@H](NC(=O)[C@H](Cc1ccccc1)NC(=O)c1cnccn1)B(O)O` [Bortezomib], the “Side effect (cardiac)” value is “heart failure, arrhythmia”.

Consider `CN(CCOc1ccc(CC2SC(=O)NC2=O)cc1)c1ccccn1` (stereo not drawn) [Rosiglitazone], for which the “Side effect (cardiac)” value was “heart failure”.

Consider `Cc1ccc(-c2ncc(Cl)cc2-c2ccc(S(C)(=O)=O)cc2)cn1` [Etoricoxib], for which the “Side effect (cardiac)” value is reported as “thrombotic events”.

Take `COc1cc2c(Nc3ccc(Br)cc3F)ncnc2cc1OCC1CCN(C)CC1` [Vandetanib]: the “Side effect (cardiac)” value is reported as “long QT”.

As to `CS(=O)(=O)c1ccc(C2=C(c3ccccc3)C(=O)OC2)cc1` [Rofecoxib], the “Side effect (cardiac)” value is given as “myocardial infarction”.

`Cc1cn([C@H]2C[C@H](N=[N+]=[N-])[C@@H](CO)O2)c(=O)[nH]c1=O` [Azidothymidine]: the “Side effect (cardiac)” value is on record as “dilated cardiomyopathy”.

As for Arsenic trioxide, the “Side effect (cardiac)” value is “QT prolongation, tachycardia”.

With `O=C1NCCN1CCN1CCC(c2cn(-c3ccc(F)cc3)c3ccc(Cl)cc23)CC1` [Sertindole], the “Side effect (cardiac)” value is “QT prolongation, TdP, sudden cardiac death”.

On to `COc1cccc2c1C(=O)c1c(O)c3c(c(O)c1C2=O)C[C@@](O)(C(=O)CO)C[C@@H]3O[C@H]1C[C@H](N)[C@H](O)[C@H](C)O1` [Doxorubicin], for which the “Side effect (cardiac)” value was “arrhythmias, heart failure”.

`CCN(CC)CC(=O)Nc1c(C)cccc1C` [Lidocaine]: the “Side effect (cardiac)” value was “bradycardia, cardiac arrest”.

On to `COc1cc(OC)c(C(=O)CCCN2CCCC2)c(OC)c1` [Buflomedil], for which the “Side effect (cardiac)” value is listed as “QT prolongation, cardiac arrest”.

These data come from patent US20240263147A1, “CARDIAC ORGANOID AND ANTI-ELECTRO-MITOCHONDRIAL DESYNCHRONIZATION THERAPY” (YISSUM RESEARCH DEVELOPMENT COMPANY OF THE HEBREW …, priority 2021, published 2024).
